The source of these data is paper PMC12647599 (Nature Communications, 2025).

The target in one test is T1, CrHYC3R (THAS3) (Catharanthus roseus, UniProt A0A1B1FHP1).
T1 sequence (A0A1B1FHP1 1-377): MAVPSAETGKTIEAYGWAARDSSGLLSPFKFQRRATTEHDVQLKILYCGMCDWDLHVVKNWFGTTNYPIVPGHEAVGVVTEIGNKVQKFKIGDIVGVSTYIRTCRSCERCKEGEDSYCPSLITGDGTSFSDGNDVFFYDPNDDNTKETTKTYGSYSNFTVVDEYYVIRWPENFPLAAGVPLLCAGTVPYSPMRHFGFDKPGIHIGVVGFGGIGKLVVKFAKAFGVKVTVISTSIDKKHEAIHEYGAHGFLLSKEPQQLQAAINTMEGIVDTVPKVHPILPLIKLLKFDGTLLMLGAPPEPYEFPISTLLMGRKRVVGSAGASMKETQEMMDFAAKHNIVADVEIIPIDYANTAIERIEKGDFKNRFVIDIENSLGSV
The test can be described thus: LC-MS/MS relative activity, yeast lysate. The settings on record: 1 mM NADPH, 20 mM Tris-HCl pH 7.5, 30 °C, 4 h. The class given is biochemical.

The next test deals with RtHYC3O. The test can be described thus: LC-MS/MS product assay, non-linear regression. The settings on record: 20 mM Tris-HCl pH 7.5, 30 °C, 10 min; air O2; FAD enzyme. Format: biochemical, Rauvolfia tetraphylla.

For the compound `COC(=O)[C@@H]1[C@H]2CC3=[N+](CCc4c3[nH]c3ccccc43)C[C@@H]2CC[C@@H]1O` [3-dehydro-yohimbine], at CrHYC3R (THAS3), the “LC-MS/MS relative activity, yeast lysate” value is “efficiently reduced 3-dehydro intermediates of yohimbine and heteroyohimbine types”.

By Km is commonly meant the concentration of substrate that gives half-maximal velocity. For the compound `COC(=O)[C@H]1[C@H]2C[C@H]3c4[nH]c5ccccc5c4CCN3C[C@H]2CC[C@@H]1O` [rauwolscine], the Km in the test on RtHYC3O stood at 1.15 µM.
